Reference: PMC11374673, “Discovery of isoquinoline sulfonamides as allosteric gyrase inhibitors with activity against fluoroquinolone-resistant bacteria” (Nature Chemistry, 2024)
Values joined by “and” are separate entries in the source; they are usually repeats but may differ in a detail not shown here. Equal entries are not always repeated. Where two headings read alike, the source gives them in different places. One block for each compound: values may come before it.

Columns and labels:
E. coli W3110 [1] = test: H-89 derivatives rescreen, 50 µM; format: cell-based; settings: Escherichia coli, H-89 derivative rescreen, highest 50 µM
Experimental: From glycerol stocks, E. coli W3110 was cultured on blood agar plates (PB5039A, Thermo Scientific) by overnight (18 ± 2 h) aerobic incubation at 37 °C. A single colony was transferred to tryptic soy broth (TSB, 02-200-500, Scharlab). The cultures were grown to exponential phase (OD600 of 0.5) at 37 °C. The bacterial suspensions were diluted 200-fold in cation-adjusted Mueller–Hinton broth (CAMHB) and 99 µl was added to a library of test compounds (1 µl 10 mM DMSO stock, per well in technical duplicates) in polypropylene 96-well microtitre plates to reach a volume of 100 µl and a final concentration of 100 µM for each test compound and a maximum of 1% DMSO. […] Screening hits were selected from the wells where no visible bacterial growth was observed, as compared with the inoculum controls containing 1% DMSO. The follow-up screen of H-89 derivatives was performed under similar conditions with a final concentration of 50 µM.

HepG2 = test: Cytotoxicity assay (MTT); format: cell-based, human; settings: for IC50: MTT, 24 h
HEK293T = test: Cytotoxicity assay (MTT); format: cell-based, human; settings: for MTT data (raw reading): HEK293T
Method in brief: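 HEK293T cells, maintained at 37 °C and 7% CO2 in Dulbecco’s modified Eagle medium with GlutaMax, antibiotics and serum, were plated in clear 96-well plates in 100 µl medium containing 1% fetal bovine serum and left 24 h to attach. After 24 h compound exposure, MTT (0.40 mg ml^−1) was added for 2 h. Formazan was dissolved in 100 µl DMSO and absorbance measured at 570 nm. Background-corrected IC50 values came from variable-slope non-linear fits.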

K. pneumoniae ATCC 29665 = test: MIC by broth microdilution; format: cell-based, Klebsiella pneumoniae; settings: read-out: MIC K. pneumoniae ATCC 29665
Method in brief: (§1)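 Exponential-phase cultures (OD600 0.5, 37 °C aerobic), diluted 100-fold in CAMHB, were added to twofold compound dilution series. Keio strains grown with 50 µg ml^−1 kanamycin. Plates incubated overnight at 37 °C, shaking at 600 r.p.m.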

E. coli W3110 [2] = test: MIC by broth microdilution; format: cell-based, Escherichia coli; settings: for MIC: broth microdilution, read-out: MIC E. coli W3110
Method in brief: as §1

Compound: COc1ccc(S(=O)(=O)NCCNCCCc2ccc(-c3cnc4[nH]ccc4c3)cc2)cc1 [Compound 20]
MIC (E. coli W3110 [1]): > 50 µM

Compound: O=S(=O)(NCCCCCCc1ccc(-c2cccnc2)cc1)c1cccc2cnccc12 [Compound 11]
MIC (E. coli W3110 [1]): > 50 µM

Compound: CC(C)(C)c1cc(C(=O)NCC#Cc2ccc(N)nc2)no1 [Compound 30]
MIC (E. coli W3110 [1]): > 50 µM

Compound: O=C(NCCNC/C=C/c1ccc(-c2cccnc2)cc1)c1cccc2cnccc12 [Compound 37]
MIC (E. coli W3110 [1]): > 50 µM

Compound: O=S(=O)(NCCNCCCc1ccc(-c2cnc3[nH]ccc3c2)cc1)c1ccc(Cl)cc1 [Compound 17]
MIC (E. coli W3110 [1]): > 50 µM

Compound: O=S(=O)(NCCNC/C=C/c1ccc(-c2cccnc2)cc1)c1cccc2ccccc12 [Compound 6]
MIC (E. coli W3110 [1]): > 50 µM

Compound: COc1ccc(S(=O)(=O)NCCNC(=O)CCc2ccc(-c3cnc4[nH]ccc4c3)cc2)cc1 [Compound 16]
MIC (E. coli W3110 [1]): > 50 µM

Compound: O=S(=O)(NCCNCc1ccc2cc(-c3cccnc3)ccc2c1)c1cccc2cnccc12 [Compound 5]
MIC (E. coli W3110 [1]): > 50 µM

Compound: Nc1ncccc1-c1ccc(CCC(=O)NCCNS(=O)(=O)c2cccc3cnccc23)cc1 [Compound 40]
MIC (E. coli W3110 [1]): > 50 µM

Compound: O=C(/C=C/c1ccc(-c2cccnc2)cc1)NCCNS(=O)(=O)c1cccc2cnccc12 [Compound 38]
MIC (E. coli W3110 [1]): > 50 µM

Compound: CC(C)(C)c1cc(C(=O)NCC#Cc2cccnc2)no1 [Compound 32]
MIC (E. coli W3110 [1]): > 50 µM

Now from value to compound, other results behind:

MIC (E. coli W3110 [1]): > 50 µM
Compound: CC(C)(C)c1cc(NC(=O)CCC#Cc2ccncc2)no1 [Compound 33]

MIC (E. coli W3110 [1]): > 50 µM
Compound: CNC(=O)c1ccc(-c2ccc(CCC(=O)NCCNS(=O)(=O)c3cccc4cnccc34)cc2)cn1 [Compound 42]

MIC (E. coli W3110 [1]): > 50 µM
Compound: O=S(=O)(NCCNCCCc1ccc(-c2cnc3[nH]ccc3c2)cc1)c1ccccc1 [Compound 19]

MIC (E. coli W3110 [1]): > 50 µM
Compound: CNC(=O)c1ncccc1-c1ccc(CCC(=O)NCCNS(=O)(=O)c2cccc3cnccc23)cc1 [Compound 43]

MIC (E. coli W3110 [1]): > 50 µM
Compound: O=S(=O)(NCCNCCCCc1ccc(-c2cccnc2)cc1)c1cccc2cnccc12 [Compound 39]

MIC (E. coli W3110 [1]): > 50 µM
Compound: O=S(=O)(NCCNCCCc1ccc(-c2cnc3[nH]ccc3c2)cc1)c1ccc(Cl)c(Cl)c1 [Compound 22]

MIC (E. coli W3110 [1]): > 50 µM
Compound: CC(C)(C)c1cc(C(=O)NCC#Cc2cnc3[nH]ccc3c2)no1 [Compound 31]

MIC (E. coli W3110 [1]): > 50 µM
Compound: CC(C)(C)c1cc(NC(=O)CCC#Cc2cnc3[nH]ccc3c2)no1 [Compound 28]

MIC (E. coli W3110 [1]): > 50 µM
Compound: Clc1cnc(N2CCCC2)nc1Nc1n[nH]c2ccccc12 [Compound 26]

MIC (E. coli W3110 [1]): > 50 µM
Compound: O=S(=O)(NCCNC/C=C/c1ccc(-c2cccnc2)cc1)c1cccc2cnccc12 [Compound 35]

MIC (K. pneumoniae ATCC 29665; Klebsiella pneumoniae, ATCC29665, broth microdilution): > 50 µM
MIC (K. pneumoniae ATCC 29665; broth microdilution): > 50 µM
MIC (E. coli W3110 [2]; Escherichia coli, W3110, WT): > 50 µM
MIC (E. coli W3110 [2]; WT): > 50 µM
Compound: O=S(=O)(NC[C@@H]1CC[C@@H](c2ccc(-c3ccc(F)nc3)cc2)N1)c1cccc2cnccc12 [Compound 98]
MTT data (raw reading) (HepG2; HepG2, 0.023 uM, n = 1): 0.370 and 0.364 and 0.367
MTT data (raw reading) (HepG2; HepG2, 0.023 uM, n = 2): 0.490 and 0.437 and 0.362
MTT data (raw reading) (HepG2; HepG2, 0.068 uM, n = 1): 0.458 and 0.420 and 0.439
MTT data (raw reading) (HepG2; HepG2, 0.068 uM, n = 2): 0.379 and 0.325 and 0.398
MTT data (raw reading) (HepG2; HepG2, 0.21 uM, n = 1): 0.404 and 0.366 and 0.380
MTT data (raw reading) (HepG2; HepG2, 0.21 uM, n = 2): 0.373 and 0.308 and 0.356
MTT data (raw reading) (HepG2; HepG2, 0.62 uM, n = 1): 0.411 and 0.337 and 0.367
MTT data (raw reading) (HepG2; HepG2, 0.62 uM, n = 2): 0.419 and 0.335 and 0.320
MTT data (raw reading) (HepG2; HepG2, 1.85 uM, n = 1): 0.394 and 0.411 and 0.409
MTT data (raw reading) (HepG2; HepG2, 1.85 uM, n = 2): 0.343 and 0.331 and 0.334
MTT data (raw reading) (HepG2; HepG2, 5.6 uM, n = 1): 0.374 and 0.346 and 0.373
MTT data (raw reading) (HepG2; HepG2, 5.6 uM, n = 2): 0.307 and 0.313 and 0.306
MTT data (raw reading) (HepG2; HepG2, 16.7 uM, n = 1): 0.262 and 0.289 and 0.283
MTT data (raw reading) (HepG2; HepG2, 16.7 uM, n = 2): 0.250 and 0.271 and 0.247
MTT data (raw reading) (HepG2; HepG2, 50 uM, n = 1): 0.250 and 0.255 and 0.242
MTT data (raw reading) (HepG2; HepG2, 50 uM, n = 2): 0.199 and 0.179 and 0.169
IC50 (HepG2; Homo sapiens, HepG2, 24 h): 66 µM
IC50 (HepG2): > 50 µM
MTT data (raw reading) (HEK293T; 0.023 uM, n = 1): 1.493 and 1.422 and 1.498
MTT data (raw reading) (HEK293T; 0.023 uM, n = 2): 1.187 and 1.056 and 1.058
MTT data (raw reading) (HEK293T; 0.068 uM, n = 1): 1.655 and 1.492 and 1.570
MTT data (raw reading) (HEK293T; 0.068 uM, n = 2): 1.098 and 1.078 and 1.080
MTT data (raw reading) (HEK293T; 0.21 uM, n = 1): 1.461 and 1.519 and 1.638
MTT data (raw reading) (HEK293T; 0.21 uM, n = 2): 1.171 and 1.012 and 1.113
MTT data (raw reading) (HEK293T; 0.62 uM, n = 1): 1.554 and 1.331 and 1.351
MTT data (raw reading) (HEK293T; 0.62 uM, n = 2): 1.166 and 1.093 and 0.989
MTT data (raw reading) (HEK293T; 1.85 uM, n = 1): 1.381 and 1.338 and 1.408
MTT data (raw reading) (HEK293T; 1.85 uM, n = 2): 1.030 and 0.960 and 0.941
MTT data (raw reading) (HEK293T; 5.6 uM, n = 1): 1.292 and 1.223 and 1.327
MTT data (raw reading) (HEK293T; 5.6 uM, n = 2): 0.968 and 1.003 and 0.916
MTT data (raw reading) (HEK293T; 16.7 uM, n = 1): 1.160 and 1.126 and 1.075
MTT data (raw reading) (HEK293T; 16.7 uM, n = 2): 0.762 and 0.627 and 0.780
MTT data (raw reading) (HEK293T; 50 uM, n = 1): 0.797 and 0.734
MTT data (raw reading) (HEK293T; 50 uM, n = 2): 0.478 and 0.528
IC50 (HEK293T; Homo sapiens, HEK-293T, 24 h, MTT): 49 µM
antimicrobial activity (E. coli W3110 [2]; relative to parent compound): completely inactive

MIC (E. coli W3110 [1]): > 50 µM
Compound: O=C(CCc1ccc(-c2cnc3[nH]ccc3c2)cc1)NCCNS(=O)(=O)c1ccc(Cl)c(Cl)c1 [Compound 14]
